Results taken from ChEMBL document CHEMBL4251550, “Applications of parallel synthetic lead hopping and pharmacophore-based virtual screening in the discovery of efficient glycine receptor potentiators” (Eur J Med Chem, 2017).
In brackets after ≈: the same amount, converted by molar mass.

Legend:
[1] = Apparent permeability in MDCK cells; assay type: ADME, cell-based, Canis lupus familiaris; settings: dog
[2] = Solubility of compound in FaSSIF; assay type: physicochemical
[3] = Volume of distribution at steady state in CD1 mouse at 1 mg/kg, iv; assay type: ADME, organism-based; settings: in vivo, read-out: Vdss

| Papp [1] [×10⁻⁶ cm/s] | solubility [2] [µM] | Vd [3] [L/kg] | Compound |
| --- | --- | --- | --- |
| 39 | 96 (≈ 39.4 µg/mL) | 1.4 | COc1ccc(Cl)cc1OC1CN(S(=O)(=O)c2ccc3[nH]c(=O)oc3c2)C1 |
| 28 | 17 (≈ 5.94 µg/mL) |  | O=S(=O)(c1ccc2c(c1)OCO2)N1CC[C@@H](c2ccccc2F)C1 |
| 44 | 102 (≈ 37.1 µg/mL) |  | COc1ccccc1OC1CN(S(=O)(=O)c2ccc3c(c2)OCO3)C1 |
| 44 | < 1 |  | CN1C(=O)[C@@H]2CN(S(=O)(=O)c3ccc4c(c3)OCO4)C[C@@H]2c2ccccc21 |
